Measurements: paper PMC3486420, “In Vitro and In Vivo Characterizations of Chiglitazar, a Newly Identified PPAR Pan-Agonist” (PPAR Research, 2012)

System: Wistar rats
Experiment: Influence in heart weight of Wistar rats, 6-month oral dosing
Format: in vivo, rat
Details: for Increase in heart weight: 135 mg kg^−1 (~900 mg/m^2) oral daily, 6 months
Protocol: Male and female Wistar rats of 6-week old were randomly divided into 4 groups, 5 for each male and female per group. Animals in different groups were orally treated daily with chiglitazar suspended in water at the doses of 15, 45, and 135 mg kg^−1, or vehicle (water), for 6 months. 24 h after the last treatment, animals were sacrificed and the weight of heart from individual animals was weighed.
Figure 5 Influence on heart weight and tissue distribution of chiglitazar in rats. (a) Wistar rats were orally administered daily with chiglitazar at the dose of 15, 45 and 135 mg kg^−1 for 6 months. 24 h after the last dosing, animals were sacrificed and the heart weight was evaluated. *P < 0.05 compared with control; n = 5 per group. (b) Male Wistar rats were orally administered with a single dose of ^3H-chiglitazar at 12.5 mg kg^−1 (radiation dose 31.7 MBq kg^−1). Rats were sacrificed at 1.5, 4, 8, and 24 h after treatment (n = 5 per time point), and various tissues/organs as indicated were taken for radioactivity measurement. The accumulated area under curves through 0 to 24 h (AUC0–24) was calculated based on individual tissue distribution measured at each time point. (c) The time course distribution of chiglitazar in different tissues at individual time point (1.5, 4, 8, 24 h). Data are expressed as mean ± SE.

Question: `O=C(c1ccc(F)cc1)c1ccccc1NC(Cc1ccc(OCCn2c3ccccc3c3ccccc32)cc1)C(=O)O` (centres unmarked) [Chi, 2-[(2-(4-fluorobenzoyl)phenyl)amino]-3-[4-(2-carbazolylethoxy)-phenyl]-propionic acid] was tested. Which “No-effect dose on heart weight (45 mg kg^−1) relative to optimal efficacy dose (10 mg kg^−1)” value (Wistar rats) did it give?
Answer: about 4.5 times

Question: And the “Microscopical examination of weight-increased hearts” value (Wistar rats, 135 mg kg^−1, 6 months (data not shown))?
Answer: minimal to mild myocardial hypertrophy

Question: And the Heart weight (Wistar rats, oral daily 6 months, doses as high as 45 mg kg^−1 (~300 mg/m^2))?
Answer: did not increase

Question: And the “Increase in heart weight” value (female Wistar rats)?
Answer: about 20%

Question: What about the “Increase in heart weight” value (male Wistar rats) of the same compound?
Answer: ~12%
